Reference: patent US11696937B2, “Glycopeptide compounds having activity of resisting drug-resistant bacteria, and preparation method and application thereof” (priority 2018, dated 2023)
Converted amounts (≈) assume the structure as drawn.

How the values were obtained:
wild AB zebrafish = assay: Zebrafish toxicity test; type: in vivo; conditions: intravenous injection, 72 hours of treatment, samples in phosphate form
Method: A zebrafish toxicity test of the compounds in Table 1 is also tested. Randomly select wild AB zebrafish in a six-well plate, and inject each test sample at a dose of 50, 100, 150, 200, and 250 ng/tail intravenously. At the same time, a normal control group and a solvent control group (aqueous phosphoric acid) are set; During this experiment, the death of zebrafish is observed and recorded every day and the dead fish are removed. After 72 hours of treatment, the death of zebrafish is counted. Calculate the LD50 of each test product to zebrafish.
All samples are tested for zebrafish toxicity in phosphate form.

[1] = test system: Clinical isolates 07-W3-45 (VRE); assay: In vitro antibacterial activity (MIC) against VRE; type: cell-based, Vancomycin-resistant Enterococcus; conditions: for MIC Clinical isolates 07-W3-45 (VRE): clinically isolated drug-resistant strain 07-W3-45 from Shanghai Huashan Hospital
Method: (§1) An antibacterial activity of the compounds in Table 1 is determined in vitro, and a minimum inhibitory concentration (MIC) is read. The determination method refers to the method of the Pharmacopoeia of the People's Republic of China (2015 edition). The MRSA detection strain is purchased from ATCC, and the VRE detection strain is from the clinically isolated drug-resistant strain 07-W3-45 from Shanghai Huashan Hospital. Known antibiotic oritavancin (phosphate) is used for a reference drug.

ATCC43300 (MRSA) = assay: In vitro antibacterial activity (MIC) against MRSA; type: cell-based, Methicillin-resistant Staphylococcus aureus; conditions: for MIC ATCC43300 (MRSA): MRSA strain ATCC43300, method of Pharmacopoeia of the People's Republic of China (2015 edition)
Method: as §1

CNC(CC(C)C)C(=O)NC1C(=O)NC(CC(N)=O)C(=O)NC2C(=O)NC3C(=O)NC(C(=O)NC(C(=O)O)c4cc(O)cc(O)c4-c4cc3ccc4O)C(OC3CC(C)(N)C(O)C(C)O3)c3ccc(c(Cl)c3)Oc3cc2cc(c3OC2OC(CO)C(O)C(O)C2OC2CC(C)(NCc3ccc(NCCc4ccccc4)cc3)C(O)C(C)O2)Oc2ccc(cc2Cl)C1O (stereo not drawn) [Compound 20]
Zebrafish LD50 (wild AB zebrafish): 189 ng/tail | MIC Clinical isolates 07-W3-45 (VRE) [1]: 2 µg/mL (≈ 1.11 µM) | MIC ATCC43300 (MRSA) (ATCC43300 (MRSA)): 0.5 µg/mL (≈ 0.278 µM)

CNC(CC(C)C)C(=O)NC1C(=O)NC(CC(N)=O)C(=O)NC2C(=O)NC3C(=O)NC(C(=O)NC(C(=O)O)c4cc(O)cc(O)c4-c4cc3ccc4O)C(OC3CC(C)(N)C(O)C(C)O3)c3ccc(c(Cl)c3)Oc3cc2cc(c3OC2OC(CO)C(O)C(O)C2OC2CC(C)(NCc3ccc(NCCc4ccc(Cl)cc4)cc3)C(O)C(C)O2)Oc2ccc(cc2Cl)C1O (stereo not drawn) [Compound 21]
Zebrafish LD50 (wild AB zebrafish): 102 ng/tail | MIC Clinical isolates 07-W3-45 (VRE) [1]: 0.5 µg/mL (≈ 0.272 µM) | MIC ATCC43300 (MRSA) (ATCC43300 (MRSA)): 0.016 µg/mL (≈ 0.00871 µM)

CNC(CC(C)C)C(=O)NC1C(=O)NC(CC(N)=O)C(=O)NC2C(=O)NC3C(=O)NC(C(=O)NC(C(=O)O)c4cc(O)cc(O)c4-c4cc3ccc4O)C(OC3CC(C)(N)C(O)C(C)O3)c3ccc(c(Cl)c3)Oc3cc2cc(c3OC2OC(CO)C(O)C(O)C2OC2CC(C)(NCc3ccc(NCCc4ccc(C(F)(F)F)cc4)cc3)C(O)C(C)O2)Oc2ccc(cc2Cl)C1O (stereo not drawn) [Compound 22]
Zebrafish LD50 (wild AB zebrafish): 142 ng/tail | MIC Clinical isolates 07-W3-45 (VRE) [1]: 0.25 µg/mL (≈ 0.134 µM) | MIC ATCC43300 (MRSA) (ATCC43300 (MRSA)): 0.032 µg/mL (≈ 0.0171 µM)

CNC(CC(C)C)C(=O)NC1C(=O)NC(CC(N)=O)C(=O)NC2C(=O)NC3C(=O)NC(C(=O)NC(C(=O)O)c4cc(O)cc(O)c4-c4cc3ccc4O)C(OC3CC(C)(N)C(O)C(C)O3)c3ccc(c(Cl)c3)Oc3cc2cc(c3OC2OC(CO)C(O)C(O)C2OC2CC(C)(NCc3ccc(NCCc4ccc(OC)cc4)cc3)C(O)C(C)O2)Oc2ccc(cc2Cl)C1O (stereo not drawn) [Compound 23]
Zebrafish LD50 (wild AB zebrafish): 192 ng/tail | MIC Clinical isolates 07-W3-45 (VRE) [1]: 1 µg/mL (≈ 0.546 µM) | MIC ATCC43300 (MRSA) (ATCC43300 (MRSA)): 0.5 µg/mL (≈ 0.273 µM)

CNC(CC(C)C)C(=O)NC1C(=O)NC(CC(N)=O)C(=O)NC2C(=O)NC3C(=O)NC(C(=O)NC(C(=O)O)c4cc(O)cc(O)c4-c4cc3ccc4O)C(OC3CC(C)(N)C(O)C(C)O3)c3ccc(c(Cl)c3)Oc3cc2cc(c3OC2OC(CO)C(O)C(O)C2OC2CC(C)(NCc3ccc(NCCCc4ccccc4)cc3)C(O)C(C)O2)Oc2ccc(cc2Cl)C1O (stereo not drawn) [Compound 24]
Zebrafish LD50 (wild AB zebrafish): 153 ng/tail | MIC Clinical isolates 07-W3-45 (VRE) [1]: 1 µg/mL (≈ 0.551 µM) | MIC ATCC43300 (MRSA) (ATCC43300 (MRSA)): 0.5 µg/mL (≈ 0.275 µM)

CNC(CC(C)C)C(=O)NC1C(=O)NC(CC(N)=O)C(=O)NC2C(=O)NC3C(=O)NC(C(=O)NC(C(=O)O)c4cc(O)cc(O)c4-c4cc3ccc4O)C(OC3CC(C)(N)C(O)C(C)O3)c3ccc(c(Cl)c3)Oc3cc2cc(c3OC2OC(CO)C(O)C(O)C2OC2CC(C)(NCc3ccc(NCCCc4ccc(Cl)cc4)cc3)C(O)C(C)O2)Oc2ccc(cc2Cl)C1O (stereo not drawn) [Compound 25]
Zebrafish LD50 (wild AB zebrafish): 97 ng/tail | MIC Clinical isolates 07-W3-45 (VRE) [1]: 0.25 µg/mL (≈ 0.135 µM) | MIC ATCC43300 (MRSA) (ATCC43300 (MRSA)): 0.064 µg/mL (≈ 0.0346 µM)

CN[C@H](CC(C)C)C(=O)N[C@H]1C(=O)N[C@@H](CC(N)=O)C(=O)N[C@H]2C(=O)N[C@H]3C(=O)N[C@H](C(=O)N[C@H](C(=O)O)c4cc(O)cc(O)c4-c4cc3ccc4O)[C@H](O[C@H]3C[C@](C)(N)[C@@H](O)[C@H](C)O3)c3ccc(c(Cl)c3)Oc3cc2cc(c3O[C@@H]2O[C@H](CO)[C@@H](O)[C@H](O)[C@H]2O[C@H]2C[C@](C)(NCc3ccc(-c4ccc(Cl)cc4)cc3)[C@@H](O)[C@H](C)O2)Oc2ccc(cc2Cl)[C@H]1O [Orivancin, oritavancin, reference compound]
Zebrafish LD50 (wild AB zebrafish): 89.4 ng/tail | MIC ([1]; Enterococcus, VRE, read-out: MIC Clinical isolates 07-W3-45 (VRE)): 2 µg/mL (≈ 1.12 µM) | MIC (ATCC43300 (MRSA); Staphylococcus aureus, read-out: MIC ATCC43300 (MRSA)): 0.5 µg/mL (≈ 0.279 µM)
